The text below walks through data of patent publication US20070122344A1, “Intraoperative determination of nerve location” (University of Rochester Medical Center Office of Technology …, priority 2005, published 2007).

The test system of one data set is mammals. The settings on record: cited from earlier work.
The test system of a further data set is cavernous nerves. Put plainly: NIRF intraoperative imaging of rat cavernous nerves after injection of ICG into the crura. The note with it: rats. In kind it is in vivo.
For data set [1] the following is noted: cited from earlier work.
Setting [2] is: mammals, several months after the treatment.

“Also recorded” adds a separate entry of the source. Like-named read-outs stand apart in the source and are kept apart here.

Description for cavernous nerves: The area was examined for retrograde axonal transport at different time points, using a NIRF intraoperative imaging system (SPY®, Novadaq Technologies Inc., Mississauga, Ontario, Canada) that illuminates tissues with a 805 nm laser and captures images with a camera sensitive to infrared fluorescence. Near infrared microscopy and conventional histology were used to confirm the macroscopically identified fluorescent structures. […] (These were specific time points at which examinations were made. […] The fluorescent nerves were then excised.

With `N=C(N)c1ccc(/C=C/c2ccc(C(=N)N)cc2O)cc1` [Fluorogold], the neuronal toxicity entry in the data set with mammals (setting [2]) was “without evidence of neuronal toxicity”; in the data set with mammals (used in mammals), “low evidence of neuronal toxicity”.
For `CC1(C)C(/C=C/C=C/C=C/C=C2\N(CCCCS(=O)(=O)O)c3ccc4ccccc4c3C2(C)C)=[N+](CCCCS(=O)(=O)[O-])c2ccc3ccccc3c21` [ICG, indocyanine green], the “identification of the cavernous nerves by fluorescence” value in the data set with cavernous nerves (ICG injected into both crura, examined at 6, 8, 12, 18, 24 and 36 hours post injection, NIRF imaging (SPY)) is “permitted identification of the nerves; also recorded: nerves were identified in situ”. Further, the “fluorescence of the cavernous nerves at longer post-injection periods” value with cavernous nerves (ICG injected into crura, e.g. 30 days post-injection) was “not detectable”. The distribution result in data set [1] (after intravenous injection, with normal vascular permeability) is reported as “remains intravascular”. In data set [1] (after intravenous injection), the excretion entry is “excreted exclusively by the liver” and the “metabolism in the body” value was “not metabolized”. In addition, in data set [1] (in vivo), the enterohepatic recirculation entry was “does not undergo enterohepatic recirculation” and the “reabsorption from the intestine” value is reported as “not reabsorbed”. Besides, in the data set on mammals (setting [2]), the neuronal toxicity result is given as “without evidence of neuronal toxicity”. Moreover, the neuronal toxicity result in the data set with mammals (used in mammals) is given as “low evidence of neuronal toxicity”.
Turning to Fast Blue, the neuronal toxicity entry with mammals (setting [2]) was “without evidence of neuronal toxicity”; in the data set with mammals (used in mammals), “low evidence of neuronal toxicity”.
